Where “and” joins values, the source holds several entries; their conditions need not be identical. Equal values may be shown once. Calls of active or inactive are those of the source.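 The calls were made as follows: active = compounds giving half or more protection of infected cells from virus-caused growth loss, again on retest; inactive = the rest.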 Where only a bound is given, the exact number is not on record here.

The assay has as its system CEM cells HIV-1 protection, formazan growth assay. Put plainly: NCI AIDS Antiviral Assay. To be noted: for IC50: measured here: growth of uninfected CEM cells. The procedure, abridged:
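Human CEM cells, uninfected and HIV-1-infected, received five drug concentrations, and growth was read by soluble formazan assay. Compounds giving at least 50% protection were retested; reproducible 100% protection defined confirmed active.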

As to `CC(C)CC(NC=O)C(=O)NC(Cc1ccccc1)NC(=O)CNC(=O)C(C)NC(=O)OC(C)(C)C` (stereo not drawn), the EC50 was over 200 µM and the IC50 is over 200 µM.

`Cc1cc(C)c2c(c1N)C(=O)CCO2`: the outcome was inactive.

`CCOC(=O)C1(C(=O)OCC)CCCN1C(=O)[C@H](CNC(=O)OC(C)(C)C)NC(=O)OCc1ccccc1`: the outcome was inactive.

As to `COC1/C=C/OC2(C)Oc3c(C)c(OC(C)=O)c4c(c3C2=O)C(=O)C=C(NC(=O)/C(C)=C\C=C\C(C)C(OC(C)=O)C(C)C(O)C(C)C(OC(C)=O)C1C)C4=O` (stereo not drawn), the EC50 is over 200 µM and the IC50 amounted to 3.02 µM.

As to `Cc1c(N=O)c(=O)n(-c2ccccc2)n1C`, the result was inactive.

Consider `C=C(C)S(=O)(=O)c1ccccc1`, for which the result was inactive.

In the case of `COC1CC(OC)C2OC(c3ccccc3)OCC2O1` (stereo not drawn), the outcome was inactive.

As for `O=C(OCc1ccccc1)C(Cc1ccccc1)N(Cc1ccccc1)Cc1ccccc1` (stereo not drawn), the EC50 was over 200 µM and the IC50 was over 200 µM.

In the case of `CSc1n[nH]c(N)c1C(=O)Nc1ccc(C)cc1`, the EC50 was over 200 µM and the IC50 was 95.5 µM.

For `CCc1cc(CCC(=O)Nc2ccccc2[N+](=O)[O-])[nH]c(=S)n1`, the EC50 was over 759 µM and the half-inhibitory concentration (IC50) was over 759 µM.

With `O=S(=O)(O)c1cc(N=Nc2cc(S(=O)(=O)O)c3ccccc3c2O)ccc1/C=C/c1ccc(N=Nc2cc(S(=O)(=O)O)c3ccccc3c2O)cc1S(=O)(=O)O`, the EC50 was 33.9 µM and 12.3 µM; the IC50 was 191 µM and > 200 µM.

For `CC(C)CCCC(C)[C@H]1CC[C@H]2[C@@H]3CC[C@H]4C[C@@H](CCC=C(c5cc(Cl)c(OC(=O)C(C)(C)C)c(C(=O)O)c5)c5cc(Cl)c(OC(=O)C(C)(C)C)c(C(=O)O)c5)CC[C@]4(C)[C@H]3CC[C@]12C` (stereo partly drawn), the EC50 was 75.9 µM and the IC50 was over 100 µM.

For the molecule `COC(=O)c1c(C#N)c(N)nc2c1CCC2`, the EC50 is over 200 µM and the IC50 was over 200 µM.

In the case of `CCOC(=O)c1cc2c(nc1N)/C(=C/c1ccccc1)CCCC2`, the EC50 is over 200 µM and the IC50 was found to be 10.7 µM.

On to `c1cnc2c(c1)-n1cccc1C1(CCSCC1)NN2`, for which the EC50 was over 60.3 µM and the IC50 is over 60.3 µM.

With `CC(C)(C)c1cc2c(OC/C=C/c3ccccc3)c(c1)Cc1cc(C(C#N)(OC/C=C/c3ccccc3)OC/C=C/c3ccccc3)cc(c1OC/C=C\c1ccccc1)Cc1cc(C(C)(C)C)cc(c1OC/C=C/c1ccccc1)Cc1cc(C(C#N)(OC/C=C\c3ccccc3)OC/C=C/c3ccccc3)cc(c1OC/C=C\c1ccccc1)C2` (stereo not drawn), the EC50 is over 100 µM and the IC50 is over 100 µM.

With `COC(=O)/C(C#N)=C(/NCc1ccccc1)Nc1ccccc1`, the EC50 is over 200 µM and the 50% inhibitory concentration (IC50) was 22.4 µM.

For `O=C(CCCn1ccnc1[N+](=O)[O-])NCCn1cncc1[N+](=O)[O-]`, the EC50 was over 200 µM and the IC50 is over 200 µM.

Regarding `CC1(C)CNC[C@@]2(C)OCCOCCOCCO[C@](C)(CNCC(C)(C)NC2=O)C(=O)N1`, the EC50 was over 200 µM and the IC50 is over 200 µM.

On to `COc1cccc2c1C1(O)C2CCCCCCCCCC12OCCCO2` (stereo not drawn), for which the EC50 is over 91.2 µM and the half-inhibitory concentration (IC50) was determined as 69.2 µM.

`ClC(Cl)(Cl)C1OCOC(C(Cl)(Cl)Cl)OCO1` (stereo not drawn): the EC50 was over 200 µM and the IC50 is over 200 µM.

Turning to `COc1ccc(/C=C(/C#N)c2ccc(Cl)cc2)cc1`, the EC50 was over 200 µM and the IC50 came out at 3.98 µM.

For the molecule `CCCCCC1=CC2C(=O)NC(=O)NC12` (stereo not drawn), the EC50 was over 47.9 µM and the IC50 was over 47.9 µM.

As for `O=C(C[n+]1ccc2ccccc2c1)c1ccc(O)c(O)c1`, the outcome was inactive.

As to `N#Cc1c(-c2ccccc2)c(C#N)c(=S)n(C2OC(CO)C(O)C(O)C2O)c1N` (stereo not drawn), the EC50 was over 200 µM; the IC50 is 83.2 µM and 64.6 µM.

For `Nc1cc(CO)cc(Nc2c3ccccc3nc3ccccc23)c1`, the EC50 was over 2 µM and the IC50 was 0.347 µM.

In the case of `CN(C)CC(/C(Cc1ccccc1)=N\NC(=O)c1ccncc1)c1ccccc1` (stereo not drawn), the EC50 was over 245 µM and the IC50 came to 93.3 µM.

For the molecule `O=C(NCCCl)SCCO`, the EC50 was over 1350 µM and the half-inhibitory concentration (IC50) is over 1350 µM.

Turning to `CCOC(=O)C1=NN(c2ccc(C)cc2)C2=CC(C)=NN(C)C(=S)N21`, the EC50 is over 200 µM and the half-inhibitory concentration (IC50) was over 200 µM.

`CN(C)c1ccc(/C=C/C(=O)/C=C/c2ccc(N(C)C)cc2)cc1`: the EC50 is over 4.27 µM and the IC50 is over 4.27 µM.

As for `c1ccc2c(c1)[nH]c1c2nc2sccn21`, the EC50 was over 234 µM; the IC50 is > 145 µM and 214 µM.

Take `CC1(C)S[C@H](CN)N[C@H]1C(=O)OC(c1ccccc1)c1ccccc1`: the EC50 was over 200 µM and the IC50 amounted to 60.3 µM.

For the molecule `CN(C(=O)C12C3C4C1C1C2C3C41C(N)=O)C(C)(C)C` (stereo not drawn), the EC50 was over 52.5 µM and the IC50 was over 52.5 µM.

`N#C/C(=C\n1ccc(=O)[nH]c1=S)C(=O)c1ccc2ccccc2c1`: the EC50 is over 200 µM and the IC50 was 123 µM.

For the molecule `Cc1cc(=O)[nH]c(NNC(C#N)c2cccc(O)c2)n1` (stereo not drawn), the EC50 is over 347 µM and the IC50 turned out to be 123 µM.

Take `CC12CCC(C1)C(O)(c1ccccc1)C2(O)c1ccccc1` (stereo not drawn): the EC50 is over 60.3 µM and the IC50 turned out to be 44.7 µM.

In the case of `COc1ccc(NS(=O)c2ccccc2OC)cc1` (stereo not drawn), the EC50 is over 200 µM and the IC50 was found to be 15.1 µM.

Regarding `Nc1cc2cccc[n+]2c2cc(Cl)ccc12`, the EC50 is over 20 µM and the IC50 was determined as 1.86 µM.

Regarding `O=[N+]([O-])O`, the EC50 was over 200 µM and the IC50 is over 200 µM.

Consider `Cc1cn(C2CC(Sc3ccccc3)C(CO)O2)c(=O)[nH]c1=O` (stereo not drawn), for which the EC50 was over 200 µM and the IC50 is over 200 µM.

Consider `COC(=O)NC1=Nc2ccccc2N(C(=O)Oc2ccccc2)S1`, for which the EC50 was over 75.9 µM and the half-inhibitory concentration (IC50) was found to be 9.33 µM.

Consider `CC1CCCN2C(=O)CN(Cc3ccccc3)CC(=O)N12` (stereo not drawn), for which the result was inactive.

Turning to `O=C(Nc1nc2c(=O)[nH]cnc2s1)c1ccccc1`, the EC50 was over 200 µM and the IC50 is over 200 µM.

Take `COc1ccc2nc3c([N+](=O)[O-])ccc4c3c(c2c1)NCCN4CCO`: the EC50 was over 200 µM and the IC50 came out at 0.398 µM.

With `CCC(=O)c1c(NOC2OCC(OC(C)=O)C(OC(C)=O)C2OC(C)=O)nc(OC)n(C)c1=O` (stereo not drawn), the EC50 was over 53.7 µM and the IC50 was over 53.7 µM.

For the molecule `NC1=NS(=O)(=O)Nc2nc(-c3ccccc3)c(-c3ccccc3)nc21`, the EC50 is over 355 µM and the IC50 is 182 µM.

Consider `CC1OC(OC2C(Oc3cc(O)c4c(=O)cc(-c5ccc(O)cc5)oc4c3)OC(CO)C(O)C2O)C(O)C(O)C1O` (stereo not drawn), for which the EC50 was over 427 µM and the IC50 is over 427 µM.

With `CCCCN(CCCC)CCCNc1c2c(nc3cc(Cl)ccc13)CCCC2`, the EC50 was over 200 µM and the IC50 came to 38.9 µM.

Regarding `CN(C)P(CCPc1ccccc1)N(C)C` (stereo not drawn), the EC50 is over 977 µM and the IC50 was over 977 µM.

Turning to `COc1cc(OCc2nc3cc(C(F)(F)F)ccc3nc2-c2ccccc2)cc(OC)c1OC`, the EC50 is over 200 µM and the IC50 is 89.1 µM.

Take `CCCCCCCCCCCCCCCC(=O)OCC1CCCN2CCCCC12` (stereo not drawn): the EC50 was over 200 µM and the IC50 was over 200 µM.

As for `CCOc1ccc(NC(=O)/C(CC(=O)c2sc(Nc3ccc(C)cc3)nc2C)=N\NC(N)=S)cc1`, the EC50 is over 200 µM and the IC50 is over 200 µM.

For the molecule `CCN(CC)CCOc1ccc(/C(C#N)=C/c2cccc3ccccc23)cc1`, the EC50 is over 200 µM and the IC50 was found to be 1.78 µM.

`CCOC(=O)c1nc2ccccc2n(CC)c1=O`: the EC50 was over 200 µM and the IC50 was found to be 79.4 µM.

Consider `COc1cc(C2c3cc4c(cc3OC3(OC)COC(=O)C23)OCO4)cc(OC)c1OC(C)=O` (stereo not drawn), for which the EC50 was over 100 µM and the IC50 was determined as 0.562 µM.

Regarding `O=C(OCc1ccccc1)N1CC[C@@H](O)[C@H]1CO`, the EC50 was over 200 µM and the IC50 was over 200 µM.

In the case of `CCn1c(=O)nc2n(-c3ccc(SC)cc3)c3ccccc3nc-2c1=O`, the outcome was inactive.

For `Cc1ccsc1/C=N/Nc1cc(C)c2cccc(C)c2n1`, the EC50 is over 200 µM and the IC50 is 138 µM.

`Oc1ccc2ccccc2c1CN1CCOCC1`: the EC50 is 132 µM and the IC50 was 186 µM.

As for `Cc1ccc(S(=O)(=O)N(CCC(=O)O)c2ccccc2)cc1`, the EC50 was over 200 µM and the IC50 was over 200 µM.

With `CN(C)c1ccc(/C=C/c2ccnc3ccccc23)cc1`, the EC50 is over 200 µM and the IC50 stood at 10.7 µM.

On to `O=C1CCCCC/C1=C\c1ccccc1`, for which the EC50 was over 200 µM and the IC50 is 52.5 µM.

For `O=C1N(Cl)C2(c3ccccc3)N(Cl)C(=O)N(Cl)C2(c2ccccc2)N1Cl` (stereo not drawn), the EC50 is over 200 µM and the IC50 was over 200 µM.

For the molecule `Cc1ccc(S(=O)(=O)N(CC(=O)O)c2c[nH]c(C(=O)O)c2)cc1`, the EC50 was over 200 µM and the IC50 was over 200 µM.

Consider `CCCCCCCCCCCCCCCCCCOCC(C[N+]1(C)CCC(O)CC1)OCC` (stereo not drawn), for which the EC50 was over 0.912 µM and the IC50 is over 0.912 µM.

For `CN(C)C(=O)NC1(N(C)C)CC1`, the EC50 is over 200 µM and the IC50 was over 200 µM.

As for `COc1cc2c(c(OC)c1OC)-c1ccc(OC)c(=O)cc1C(NC1=C(Cl)C(=O)c3ccccc3C1=O)CC2` (stereo not drawn), the EC50 was over 174 µM and the IC50 came to 0.0562 µM.

For `Clc1cc(Cl)c2n[se]nc2c1`, the result was inactive.

In the case of `CCN(CC)CCOc1ccc(C(=C2CCCCC2)c2ccc(OCCN(CC)CC)cc2)cc1`, the EC50 was over 38.9 µM and the IC50 was found to be 2.19 µM.

Turning to `Cn1ccnc1C(c1nccn1C)C(C)(C)[N+](=O)[O-]`, the EC50 is over 339 µM and the IC50 was over 339 µM.

`CCN(CC)c1cc2oc(=O)cc(C)c2cc1NC(=O)c1cc([N+](=O)[O-])cc([N+](=O)[O-])c1`: the EC50 is over 49 µM and the IC50 is over 49 µM.

By EC50 is commonly meant the midpoint of the concentration-response curve. Usually IC50 stands for the point on the concentration scale where inhibition reaches its midpoint. High values mean a need for much substance, low ones inhibition by little substance.

For the origin of these results see PubChem BioAssay AID179 (DTP/NCI, 2004).
